Measurements reported in patent US4898858A, “Cephalosporin derivatives and antibiotics containing the same” (Meiji Seika Kaisha Ltd., priority 1985, dated 1990).
In brackets after ≈: the same amount, converted by molar mass.

Assays:
[1] = system: Enterobacter Cloacae G-0005; experiment: minimum growth-inhibitory concentration (MIC) in vitro; format: cell-based
[2] = system: Streptocuccus faecalis W-75; experiment: as above; format: cell-based
[3] = system: Pseudomonas aeruginosa GN-10362; experiment: as above; format: cell-based; conditions: GN10362
Proteus vulgais GN-76 = experiment: as above; format: cell-based
[4] = system: Klebsiella pneumoniae GN-118; experiment: as above; format: cell-based; conditions: GN118
Escherichia coli No.29 = experiment: as above; format: cell-based
Proteus rettgeri J-0026 = experiment: as above; format: cell-based; conditions: Providencia rettgeri, J0026
[5] = system: Salmonella enteritidis No.11; experiment: as above; format: cell-based; conditions: Salmonella enterica
[6] = system: Escherichia coli NIHJ JC-2; experiment: as above; format: cell-based; conditions: NIHJJC2; Escherichia coli NIHJ JC-2; in vitro; read-out: MIC-value
[7] = system: Staphylococcus aureus 606 E-25; experiment: as above; format: cell-based; conditions: 606E25
[8] = system: Pseudomonas aeruginosa E-2; experiment: as above; format: cell-based; conditions: E2
[9] = system: Enterobacter Cloacae G-0008; experiment: as above; format: cell-based
Proteus morganii 1510 = experiment: as above; format: cell-based; conditions: Morganella morganii
[10] = system: Klebsiella pneumoniae GN-69; experiment: as above; format: cell-based; conditions: GN69; Klebsiella pneumoniae GN-69; in vitro; read-out: MIC-value
[11] = system: Pseudomonas aeruginosa MB-3833; experiment: as above; format: cell-based; conditions: MB3833
[12] = system: Serratia marcescens GN-10857; experiment: as above; format: cell-based; conditions: GN10857
[13] = system: Proteus vulgais GN-76/C-1; experiment: as above; conditions: for MIC: Proteus vulgaris, GN76, read-out: MIC-value
[14] = system: Serratia marcescens GN-629; experiment: as above; format: cell-based; conditions: GN629
Proteus rettgeri GN-624 = experiment: as above; format: cell-based; conditions: Providencia rettgeri, GN624
Escherichia coli ML1410 = experiment: as above; format: cell-based
[15] = system: Salmonella typhimurium LT-2; experiment: as above; format: cell-based; conditions: Salmonella enterica
[16] = system: Staphylococcus aureus 209P JC-1; experiment: as above; format: cell-based
[17] = system: Staphylococcus aureus 606; experiment: as above; format: cell-based
Pseudomonas aeniginosa = experiment: MIC, comparison of the compounds of the present invention and the relevant compounds; format: cell-based; conditions: Table 2, strain not given, by substituent B

Structure (SMILES) | MIC [1] | MIC [2] | MIC (Proteus vulgais GN-76) | MIC [4] | MIC (Proteus rettgeri J-0026) | MIC [5] | MIC [6] | MIC [7] | MIC [8] | MIC [9] | MIC (Proteus morganii 1510) | MIC [10] | MIC [11] | MIC [12] | MIC [13] | MIC [14] | MIC (Proteus rettgeri GN-624) | MIC (Escherichia coli ML1410) | MIC [15] | MIC [17] | further results
Nc1nc(/C(=N/OC(C(=O)O)C2CCCCC2)C(=O)N[C@@H]2C(=O)N3C(C(=O)[O-])=C(CSc4cc[n+](CCF)cc4)CS[C@H]23)cs1 (stereo partly shown) [Example 5] | 3.13 µg/mL (≈ 4.61 µM) | 3.13 µg/mL (≈ 4.61 µM) | 0.78 µg/mL (≈ 1.15 µM) | 1.56 µg/mL (≈ 2.3 µM) | 3.13 µg/mL (≈ 4.61 µM) | 0.2 µg/mL (≈ 0.295 µM) | 3.13 µg/mL (≈ 4.61 µM) | 3.13 µg/mL (≈ 4.61 µM) | 12.5 µg/mL (≈ 18.4 µM) | 3.13 µg/mL (≈ 4.61 µM) | 6.25 µg/mL (≈ 9.21 µM) | 1.56 µg/mL (≈ 2.3 µM) | 12.5 µg/mL (≈ 18.4 µM) | 6.25 µg/mL (≈ 9.21 µM) | 0.78 µg/mL (≈ 1.15 µM) | 6.25 µg/mL (≈ 9.21 µM) | 0.39 µg/mL (≈ 0.575 µM) | 3.13 µg/mL (≈ 4.61 µM) | 3.13 µg/mL (≈ 4.61 µM) | 3.13 µg/mL (≈ 4.61 µM) | MIC [3]: 12.5 µg/mL (≈ 18.4 µM); MIC (Escherichia coli No.29): 3.13 µg/mL (≈ 4.61 µM); MIC [16]: 1.56 µg/mL (≈ 2.3 µM)
CCC(O/N=C(\C(=O)N[C@@H]1C(=O)N2C(C(=O)[O-])=C(CSc3cc[n+](CCF)cc3)CS[C@H]12)c1csc(N)n1)C(=O)O (stereo partly shown) [Example 4] | 0.39 µg/mL (≈ 0.624 µM) | 6.25 µg/mL (≈ 10 µM) | 0.05 µg/mL (≈ 0.08 µM) | 0.1 µg/mL (≈ 0.16 µM) | 0.78 µg/mL (≈ 1.25 µM) | < 0.025 µg/mL | 0.39 µg/mL (≈ 0.624 µM) | 6.25 µg/mL (≈ 10 µM) | 3.13 µg/mL (≈ 5.01 µM) | 0.39 µg/mL (≈ 0.624 µM) | 3.13 µg/mL (≈ 5.01 µM) | 0.1 µg/mL (≈ 0.16 µM) | 3.13 µg/mL (≈ 5.01 µM) | 3.13 µg/mL (≈ 5.01 µM) | 0.2 µg/mL (≈ 0.32 µM) | 0.78 µg/mL (≈ 1.25 µM) | 0.05 µg/mL (≈ 0.08 µM) | 0.39 µg/mL (≈ 0.624 µM) | 0.2 µg/mL (≈ 0.32 µM) | 6.25 µg/mL (≈ 10 µM) | MIC [3]: 3.13 µg/mL (≈ 5.01 µM); MIC (Escherichia coli No.29): 0.39 µg/mL (≈ 0.624 µM); MIC [16]: 6.25 µg/mL (≈ 10 µM)
CC[n+]1ccc(SCC2=C(C(=O)[O-])N3C(=O)[C@@H](NC(=O)/C(=N\O[C@@H](C)C(=O)O)c4csc(N)n4)[C@H]3SC2)cc1 [Example 8] | 0.05 µg/mL (≈ 0.0844 µM) | 0.78 µg/mL (≈ 1.32 µM) | 0.025 µg/mL (≈ 0.0422 µM) | < 0.025 µg/mL | 0.05 µg/mL (≈ 0.0844 µM) | < 0.025 µg/mL | 0.1 µg/mL (≈ 0.169 µM) | 3.13 µg/mL (≈ 5.28 µM) | 0.78 µg/mL (≈ 1.32 µM) | 0.05 µg/mL (≈ 0.0844 µM) | 0.78 µg/mL (≈ 1.32 µM) | < 0.025 µg/mL | 0.78 µg/mL (≈ 1.32 µM) | 0.39 µg/mL (≈ 0.658 µM) | 0.05 µg/mL (≈ 0.0844 µM) | 0.1 µg/mL (≈ 0.169 µM) | 0.05 µg/mL (≈ 0.0844 µM) | 0.1 µg/mL (≈ 0.169 µM) | < 0.025 µg/mL | 1.56 µg/mL (≈ 2.63 µM) | –
CC[n+]1ccc(SCC2=C(C(=O)[O-])N3C(=O)[C@@H](NC(=O)/C(=N\O[C@H](C)C(=O)O)c4csc(N)n4)[C@H]3SC2)cc1 [Example 9, (6R,7R)-7-[(Z)-2-(2-Aminothiazol-4-yl)-2-{(1R)-carboxyethoxyimino}acetamid]-3-(1-ethylpyridinium-4-ylthiomethyl)-ceph-3-em-4-carboxylate] | 0.2 µg/mL (≈ 0.337 µM) | 6.25 µg/mL (≈ 10.5 µM) | 0.1 µg/mL (≈ 0.169 µM) | 0.05 µg/mL (≈ 0.0844 µM) | 0.2 µg/mL (≈ 0.337 µM) | < 0.025 µg/mL | 0.1 µg/mL (≈ 0.169 µM) | 6.25 µg/mL (≈ 10.5 µM) | 1.56 µg/mL (≈ 2.63 µM) | 0.1 µg/mL (≈ 0.169 µM) | 0.78 µg/mL (≈ 1.32 µM) | 0.05 µg/mL (≈ 0.0844 µM) | 3.13 µg/mL (≈ 5.28 µM) | 1.56 µg/mL (≈ 2.63 µM) | 0.1 µg/mL (≈ 0.169 µM) | 0.39 µg/mL (≈ 0.658 µM) | < 0.025 µg/mL | 0.1 µg/mL (≈ 0.169 µM) | 0.05 µg/mL (≈ 0.0844 µM) | 6.25 µg/mL (≈ 10.5 µM) | MIC [3]: 3.13 µg/mL (≈ 5.28 µM); MIC (Escherichia coli No.29): 0.1 µg/mL (≈ 0.169 µM); MIC [16]: 3.13 µg/mL (≈ 5.28 µM)
C[C@H](O/N=C(\C(=O)N[C@@H]1C(=O)N2C(C(=O)[O-])=C(CSc3cc[n+](C)cc3)CS[C@H]12)c1csc(N)n1)C(=O)O [drawing 15] | – | – | – | – | – | – | – | – | – | – | – | – | – | – | – | – | – | – | – | – | MIC (Pseudomonas aeniginosa): 0.78 µg/mL (≈ 1.35 µM); MIC-value ([13]; Table 2, Proteus vulgaris GN76/C-1, by substituent B): 0.05 µg/mL (≈ 0.0864 µM)
